Where two headings read alike, the source gives them in different places.
Tests used:
[1] = human, in vivo, iv, cited from earlier work
[2] = system: two familial males with RLS; assay: Restless Legs Syndrome case study: oral D-ribose at three dosing regimens, symptom diary; type: in vivo, human; conditions: three weeks
Text: We present a report on two familial males with RLS in which the supplementation of D-ribose produced a benefit in lessening the occurrence and severity of their daily symptoms. Both affected male individuals were from a positive family prevalence, three generations carrying the diagnosis of RLS. These males involved the latter two generations, parent and child, respectively. Both men had no underlying medical conditions. Their symptoms of RLS date back for decades and presently have progressed to the moderate to severe discomfort stage, mainly experienced during sedentary periods throughout the day with exacerbation of symptoms during nocturnal sleep.
Both individuals were introduced to D-ribose. To evaluate any potential benefits of D-ribose in RLS, each individual orally consumed D-ribose (five grams per dose) daily at different trial dosing regimens. Each trial dosing regimen lasted for three weeks with a two week interval washout between dosing regimens. The initial regimen involved a single dose of oral D- ribose consumed only at breakfast. The second dosing regimen involved consumption of oral D-ribose at breakfast and lunch. In the last dosing regiment, oral D-ribose was taken with all meals, breakfast, lunch and dinner. A diary pertaining to the documentation and severity of RLS symptoms was compiled.
The two week washout period between stages was designed to observe any return or worsening of their symptoms. […] Following completion of all dosing regimens of oral D-ribose and with the final wash out period, both males elected to re-start oral dosing of D-ribose at 5 grams/doses three times a day.

[3] = second regimen: oral, five grams at breakfast and lunch

## O=C[C@H](O)[C@H](O)[C@H](O)CO [D-Ribose]
[1]; 60 mg/kg
  D-Ribose levels in the serum: approximately 25 mg/dl
  half-life of D-Ribose in the serum: 11 min
[1]; 100 mg/kg
  D-Ribose levels in the serum: approximately 25 mg/dl
  half-life of D-Ribose in the serum: 16 min
[1]; 222.2 mg/kg
  serum level: ≤ 86 mg/dL
[1]
  serum levels: ≤ 60 mg/dL
[2]; initial regimen: oral, five grams single dose at breakfast
  energy and fatigue: general feeling of more energy and less fatigue
[2]; [3]
  leg twitching events and the urge to move during the day: reduced for one of the subjects and rarely present in the other
  unpleasant sensations during the night: Both still experienced the unpleasant sensations during the night
